Data: patent publication US5981559A, “Azole derivative with leukotriene (LTs) antagonizing activity and thromboxane (TX) A2 antagonizing activity” (Yamanouchi Pharmaceutical Co., Ltd., priority 1994, dated 1999)

Columns and labels:
[1] = tested on: U-46619 induced airway resistance increase; assay: Inhibition of U-46619 induced airway resistance increase in guinea pig by oral administration (Test (3)); format: in vivo, guinea pig (male Hartley); details: 10 mg/kg oral, 1 hour before U-46619 (3 μg/kg i.v.)
Protocol: (3) Test Method for the Inhibition of U-46619 Induced Airway Resistance Increase in Guinea Pig by Oral Administration of Compounds
A male Hartley guinea pig (500 to 800 g) was anesthetized with urethane (1.2 g/kg, i.p.) and fixed on the back to insert a tracheal cannula. Spontaneous respiration was stopped with gallamine (1 mg/kg, i.v.) and artificial respiration was carried out at a rate of 60 strokes/min, volume 1 ml/100 g body weight/cycle. After total jugular intravenous administration of U-46619 (3 μg/kg), the increasing airway resistance was measured by a respiration function measuring apparatus (Model 6, Buxco Electronics Inc.). In this case, test compound was orally administered 1 hour before the administration of U-46619, as a dimethyl sulfoxide solution or as a methyl cellulose suspension.
The results were calculated as the inhibition ratio of airway resistance at the time of the administration of 10 mg/kg of the compound.

[2] = tested on: LTD4-induced vascular permeability acceleration; assay: Inhibition of LTD4-induced vascular permeability acceleration by oral administration (Test (4)); format: in vivo, guinea pig (male Hartley); details: 10 mg/kg oral, 1 hour before LTD4 (5 ng/site intracutaneous); dimethyl sulfoxide solution (DMSO)
Protocol: (4) Test Method for the Inhibition of LTD4 -Induced Vascular Permeability Acceleration by Oral Administration of Compounds
A male Hartley guinea pig whose dorsal hair had been cut on the day before the test was subjected to intravenous administration of 1% Evans blue aqueous solution (1 ml/animal). Two minutes thereafter, LTD4 (5 ng/site) was administered inside the dorsal skin of the guinea pig, and the guinea pig was sacrificed by decapitation 30 minutes thereafter. The skin where intracutaneous injection of LTD4 was carried out was collected, and the pigment leaked into the skin was extracted. Amount of the leaked pigment was calculated by measuring its absorbance at 620 nm and used as the index of vascular permeability. The test compound was orally administered as a dimethyl sulfoxide solution 1 hour before the intracutaneous administration of LTD4. The results were calculated as the inhibition ratio at the time of the administration of 10 mg/kg of the compound.

[3] = tested on: ileal contraction by LTD4; assay: Inhibition of ileal contraction by LTD4 in guinea pig (Test (2)); parameters: species or system guinea pig (male Hartley); details: guinea pig ileum, LTD4 10^-9 M; compound incubation 20 minutes
Protocol: (2) Test Method for the Inhibition of Ileal Contraction by LTD4 in Guinea Pig
A male Hartley guinea pig of 500 to 700 g in body weight was sacrificed by head blow. The ileum was set in a Magnus vessel containing 10 ml of Tyrode solution aerated with a 95% O2 +5% CO2 mixture gas at a tension of 1.0 g. The tension generated by the tissue was isometrically measured using a threton gage transducer. Ileal contraction reaction against LTD4 (10^-9 M) was measured in the absence of the compound and then in the presence of the test compound in varied concentrations. Incubation time of the compound was set to 20 minutes.

[4] = tested on: platelet aggregation induced by U-46619 (stable analog of TXA2); assay: Inhibition of platelet aggregation induced by U-46619 (Test (1)); format: cell-based, guinea pig (male Hartley); details: Cavia porcellus; guinea pig PRP, platelet count 500,000/μl; compound added 2 minutes before U-46619
Protocol: (1) Test Method for the Inhibition of Platelet Aggregation Induced by U-46619
Using a plastic syringe containing 1 volume of 3.8% sodium citrate aqueous solution, 9 volumes of blood was collected from the abdominal aorta of a male Hartley guinea pig of about 800 g in body weight. Platelet rich plasma (PRP) was obtained by subjecting the blood to 10 minutes of centrifugation at 270×g, and the remaining blood was further centrifuged at 1,100×g for 10 minutes to give platelet poor plasma (PPP). The PRP was diluted with PPP to control the platelet count to 500,000/μl, and platelet aggregation by a stable analog of TXA2, U-46619 (a chemical name: 9,11-dideoxy-9α,11α-methanoepoxy-prostaglandin F2 α), was measured in accordance with the method of Bone and Cross (Journal of Physiology, vol.168, pp.178-195, 1963).
That is, changes in the light transmittance of PRP by U-46619 (10^-6 […]) was measured using NBS Hematracer. The compound was added 2 minutes before the addition of U-46619, and the IC50 value (50% inhibition concentration) was calculated from the inhibition ratio based on the maximum light transmittance by U-46619.

[5] = dimethyl sulfoxide solution (DMSO)

SMILES | Test (3) Inhibition ratio [1, 5] [%] | Test (3) Inhibition ratio ([1]; methyl cellulose suspension (MC)) [%] | Test (4) Inhibition ratio [2] [%] | IC50 [3] [nM] | IC50 [4] [nM]
O=C(O)COc1ccc(CCCS(=O)(=O)c2ccc(Cl)cc2)cc1NC(=O)c1cccc(OCc2ccc3ccccc3n2)c1 [Comparative compound] | 27 | 21 | 35 | – | –
CCOC(=O)COc1ccc(CCCS(=O)(=O)c2ccc(Cl)cc2)cc1NC(=O)c1cccc(OCc2nc(C(C)(C)C)cs2)c1 [Example 6, Ethyl 2-[3-[(4-tert-butyl-2-thiazolyl)methoxy]benzoylamino]-4-[3-(4-chlorophenylsulfonyl)propyl]phenoxyacetate] | – | – | – | 0.81 | 450
CC(C)(C)c1csc(COc2cccc(C(=O)Nc3cc(CCCS(=O)(=O)c4ccc(Cl)cc4)ccc3OCC(=O)O)c2)n1 [Example 13, 2-[3-[(4-tert-Butyl-2-thiazolyl)methoxy]benzoylamino]-4-[3-(4-chlorophenylsulfonyl)propyl]phenoxyacetic acid] | – | – | – | 0.45 | 55
CCOC(=O)COc1ccc(CCCS(=O)(=O)c2ccc(Cl)cc2)cc1NC(=O)c1cccc(OCc2nc(C3CC3)cs2)c1 [Example 15, Ethyl 4-[3-(4-chlorophenylsulfonyl)propyl]-2-[3-[(4-cyclopropyl-2-thiazolyl]methoxy]benzoylamino]phenoxyacetate] | – | – | – | 0.85 | 63
O=C(O)COc1ccc(CCCS(=O)(=O)c2ccc(Cl)cc2)cc1NC(=O)c1cccc(OCc2nc(C3CC3)cs2)c1 [Example 26, 4-[3-(4-Chlorophenylsulfonyl)propyl]-2-[3-[(4-cyclopropyl-2-thiazolyl)methoxy]benzoylamino]phenoxyacetic acid] | – | – | – | 0.54 | 79
CC(C)(C)c1csc(CSc2cccc(C(=O)Nc3cc(CCCS(=O)(=O)c4ccc(Cl)cc4)ccc3OCC(=O)O)c2)n1 [Example 27, 2-[3-[(4-tert-Butyl-2-thiazolyl)methylthio]benzoylamino]-4-[3-(4-chlorophenylsulfonyl)propyl]phenoxyacetic acid] | – | – | – | 0.67 | 210
CC(C)(C)c1csc(CCc2cccc(C(=O)Nc3cc(CCCS(=O)(=O)c4ccc(Cl)cc4)ccc3OCC(=O)O)c2)n1 [Example 28, 2-[3-[2-(4-tert-Butyl-2-thiazolyl)ethyl]benzoylamino]-4-[3-(4-chlorophenylsulfonyl)propyl]phenoxyacetic acid] | – | – | – | 0.98 | 74
O=C(O)COc1ccc(CCCS(=O)(=O)c2ccc(Cl)cc2)cc1NC(=O)c1cccc(OCc2nc(C3CCCCC3)cs2)c1 [Example 29, 4-[3-(4-Chlorophenylsulfonyl)propyl]-2-[3-[(4-cyclohexyl-2-thiazolyl)methoxy]benzoylamino]phenoxyacetic acid] | – | – | – | 0.61 | 110
O=C(O)COc1ccc(CCCS(=O)(=O)c2ccc(Cl)cc2)cc1NC(=O)c1cccc(OCc2nc(C3CCC3)cs2)c1 [Example 31, 4-[3-(4-Chlorophenylsulfonyl)propyl]-2-[3-[(4-cyclobutyl-2-thiazolyl)methoxy]benzoylamino]phenoxyacetic acid] | 72 | – | 40 | 0.28 | 130
CC(C)(C)c1csc(COc2cccc(C(=O)Nc3cc(CCCS(=O)(=O)c4ccc(Cl)cc4)ccc3OCc3nnn[nH]3)c2)n1 [Example 39, 3-[(4-tert-Butyl-2-thiazolyl)methoxy]-5'-[3-(4-chlorophenylsulfonyl)propyl]-2'-(1H-tetrazol-5-ylmethoxy)benzanilide] | – | – | – | 0.57 | 220
Cc1oc(=O)oc1COC(=O)COc1ccc(CCCS(=O)(=O)c2ccc(Cl)cc2)cc1NC(=O)c1cccc(OCc2nc(C(C)(C)C)cs2)c1 [Example 42, (5-methyl-2-oxo-1,3-dioxol-4-yl)methyl=2-[3-[(4-tert-butyl-2-thiazolyl)methoxy]benzoylamino]-4-[3-(4-chlorophenylsulfonyl)propyl]phenoxyacetic acid] | – | – | – | 0.93 | 420
O=C(Nc1cc(CCCS(=O)(=O)c2ccc(Cl)cc2)ccc1OCc1nnn[nH]1)c1cccc(OCc2nc(C3CCC3)cs2)c1 [Example 74, 5'-[3-(4-Chlorophenylsulfonyl)propyl]-3-[(4-cyclobutyl-2-thiazolyl)methoxy]-2'-(1H-tetrazol-5-ylmethoxy)benzanilide] | – | – | – | 0.24 | 540
CC(C)(C)c1csc(COc2cccc(C(=O)Nc3cc(CCCS(=O)(=O)c4ccc(Cl)cc4)ccc3OC(F)C(=O)O)c2)n1 (centres unmarked) [Example 79, 2-[2-[3-[(4-tert-butyl-2-thiazolyl)methoxy]benzoylamino]-4-[3-(4-chlorophenylsulfonyl)propyl]phenoxy]-2-fluoroacetic acid hydrate] | – | – | – | 4.2 | 890
O=C(O)CNC(=O)COc1ccc(CCCS(=O)(=O)c2ccc(Cl)cc2)cc1NC(=O)c1cccc(OCc2nc3ccccc3s2)c1 [Example 106, N-[[2-[3-(2-Benzothiazolylmethoxy)benzoylamino]-4-[3-(4-chlorophenylsulfonyl)propyl]phenoxy]acetyl]glycine] | – | – | – | 0.92 | 1200
CS(=O)(=O)NC(=O)COc1ccc(CCCS(=O)(=O)c2ccc(Cl)cc2)cc1NC(=O)c1cccc(OCc2nc3ccccc3s2)c1 [Example 107, 2-[2-[3-(2-benzothiazolylmethoxy)benzoylamino]-4-[3-(4-chlorophenylsulfonyl)propyl]phenoxy]-N-(methanesulfonyl)acetamide 0.5 hydrate] | – | – | – | 3.7 | 670
O=C(Nc1cc(CCCS(=O)(=O)c2ccc(Cl)cc2)ccc1OCc1nnn[nH]1)c1cccc(OCc2nc3ccccc3s2)c1 [Example 111, 3-(2-benzothiazolylmethoxy)-5'-[3-(4-chlorophenylsulfonyl)propyl]-2'-(1H-tetrazol-5-ylmethoxy)benzanilide] | – | – | – | 0.26 | 380
